Measurements as given in PubChem BioAssay (NCI).
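Compound exposure: 48 hours, 5 concentrations, 96-well plates. GI50 is the concentration that inhibits growth by half. At the TGI there is no net growth.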

How the values were obtained:
Test in all cases: NCI tumour cell line growth inhibition, 48 h
SK-MEL-2 melanoma = test system: SK-MEL-2 melanoma
SW-620 colon = test system: SW-620 colon
NCI-H460 lung = test system: NCI-H460 lung
HT29 colon = test system: HT29 colon
IGROV1 ovarian = test system: IGROV1 ovarian
HCT-15 colon = test system: HCT-15 colon
MOLT-4 leukemia = test system: MOLT-4 leukemia
A498 renal = test system: A498 renal
DU-145 prostate = test system: DU-145 prostate
SF-295 CNS = test system: SF-295 CNS

`COc1cc(/C=C/C(=O)c2ccc(F)cc2)ccc1OCCCN1CCN(CC(=O)Nc2ccc(Cl)cc2C(=O)c2ccccc2Cl)CC1` was tested, and the GI50 (SK-MEL-2 melanoma) was 12.6 µM, the TGI (SK-MEL-2 melanoma) was 32.1 µM and the GI50 (SW-620 colon) was 2.73 µM. It also gave a TGI (SW-620 colon) of 10.7 µM, a GI50 (NCI-H460 lung) of 4.47 µM and a TGI (NCI-H460 lung) greater than 100 µM. For the same compound, the GI50 (HT29 colon) was 2.05 µM, the TGI (HT29 colon) was 10.4 µM and the GI50 (IGROV1 ovarian) was 6.17 µM. The TGI (IGROV1 ovarian) was 41.6 µM, the GI50 (HCT-15 colon) was 4.09 µM and the TGI (HCT-15 colon) was 19.5 µM. It also gave a GI50 (MOLT-4 leukemia) of 3.23 µM, a TGI (MOLT-4 leukemia) greater than 100 µM and a GI50 (A498 renal) of 29.4 µM. It also gave a TGI (A498 renal) greater than 100 µM, a GI50 (DU-145 prostate) of 29.8 µM and a TGI (DU-145 prostate) greater than 100 µM. For the same compound, the GI50 (SF-295 CNS) was 5.57 µM and the TGI (SF-295 CNS) was 19 µM.
`COc1cnc2c(c1)C(=O)c1c-2n(CCCNC2=NCCS2)c(=O)c2cc(Cl)ccc12` showed a GI50 (SK-MEL-2 melanoma) of 18.3 µM, a TGI (SK-MEL-2 melanoma) of 34.3 µM and a GI50 (SW-620 colon) of 0.146 µM. It also gave a TGI (SW-620 colon) of 2.08 µM, a GI50 (NCI-H460 lung) of 0.0299 µM and a TGI (NCI-H460 lung) of 1.16 µM. For the same compound, the GI50 (HT29 colon) was 0.121 µM, the TGI (HT29 colon) was 2.23 µM and the GI50 (HCT-15 colon) was 1.26 µM. The TGI (HCT-15 colon) was 2.67 µM, the GI50 (MOLT-4 leukemia) was 0.0454 µM and the TGI (MOLT-4 leukemia) was 1.71 µM. The GI50 (A498 renal) was 1.29 µM, the TGI (A498 renal) was 19.8 µM and the GI50 (DU-145 prostate) was 0.0929 µM. The TGI (DU-145 prostate) was 1.83 µM, the GI50 (SF-295 CNS) was 0.0776 µM and the TGI (SF-295 CNS) was 1.07 µM.
`Cc1ccc(C(=O)NC2CCC2)cc1-c1ccc(C(=O)NCC2CC2)cc1` gave a GI50 (SK-MEL-2 melanoma) greater than 25 µM, a TGI (SK-MEL-2 melanoma) greater than 25 µM and a GI50 (SW-620 colon) greater than 25 µM. For the same compound, the TGI (SW-620 colon) was greater than 25 µM, the GI50 (NCI-H460 lung) was greater than 25 µM and the TGI (NCI-H460 lung) was greater than 25 µM. It also gave a GI50 (HT29 colon) greater than 25 µM, a TGI (HT29 colon) greater than 25 µM and a GI50 (IGROV1 ovarian) greater than 25 µM. It also gave a TGI (IGROV1 ovarian) greater than 25 µM, a GI50 (HCT-15 colon) greater than 25 µM and a TGI (HCT-15 colon) greater than 25 µM. For the same compound, the GI50 (MOLT-4 leukemia) was greater than 25 µM, the TGI (MOLT-4 leukemia) was greater than 25 µM and the GI50 (A498 renal) was 25 µM. It also gave a TGI (A498 renal) greater than 25 µM, a GI50 (DU-145 prostate) greater than 25 µM and a TGI (DU-145 prostate) greater than 25 µM. For the same compound, the GI50 (SF-295 CNS) was greater than 25 µM and the TGI (SF-295 CNS) was greater than 25 µM.
`NCCN.O=C([O-])CN1CCOCC1.[OH-].[Pt+4]` gave a GI50 (SK-MEL-2 melanoma) greater than 100 µM, a TGI (SK-MEL-2 melanoma) greater than 100 µM and a GI50 (SW-620 colon) greater than 100 µM. For the same compound, the TGI (SW-620 colon) was greater than 100 µM, the GI50 (NCI-H460 lung) was 37.5 µM and the TGI (NCI-H460 lung) was greater than 100 µM. For the same compound, the GI50 (HT29 colon) was greater than 100 µM, the TGI (HT29 colon) was greater than 100 µM and the GI50 (IGROV1 ovarian) was greater than 100 µM. The TGI (IGROV1 ovarian) was greater than 100 µM, the GI50 (HCT-15 colon) was greater than 100 µM and the TGI (HCT-15 colon) was greater than 100 µM. The GI50 (MOLT-4 leukemia) was greater than 100 µM, the TGI (MOLT-4 leukemia) was greater than 100 µM and the GI50 (A498 renal) was greater than 100 µM. For the same compound, the TGI (A498 renal) was greater than 100 µM, the GI50 (DU-145 prostate) was greater than 100 µM and the TGI (DU-145 prostate) was greater than 100 µM. For the same compound, the GI50 (SF-295 CNS) was greater than 100 µM and the TGI (SF-295 CNS) was greater than 100 µM.
Work on `Cc1nn(-c2ccc(Cl)cc2)c2nc3c(nc12)C(=O)C(=O)c1ccccc1-3` yielded a GI50 (SK-MEL-2 melanoma) of 4.71 µM, a TGI (SK-MEL-2 melanoma) of 16.2 µM and a GI50 (SW-620 colon) of 3.25 µM. It also gave a TGI (SW-620 colon) of 20.9 µM, a GI50 (HT29 colon) of 2.01 µM and a TGI (HT29 colon) of 3.99 µM. The GI50 (IGROV1 ovarian) was 5.46 µM, the TGI (IGROV1 ovarian) was 47.3 µM and the GI50 (HCT-15 colon) was 3.4 µM. The TGI (HCT-15 colon) was 16.8 µM, the GI50 (MOLT-4 leukemia) was greater than 100 µM and the TGI (MOLT-4 leukemia) was greater than 100 µM. For the same compound, the GI50 (A498 renal) was 1.27 µM, the TGI (A498 renal) was 2.96 µM and the GI50 (DU-145 prostate) was 1.98 µM. For the same compound, the TGI (DU-145 prostate) was 3.57 µM, the GI50 (SF-295 CNS) was 1.72 µM and the TGI (SF-295 CNS) was 3.43 µM.
`COc1cc([N+](=O)[O-])c(OC)cc1-c1nc2sccn2c1/C=N/N=C(N)N` gave a GI50 (SK-MEL-2 melanoma) of 30.9 µM, a TGI (SK-MEL-2 melanoma) greater than 100 µM and a GI50 (SW-620 colon) of 15 µM. For the same compound, the TGI (SW-620 colon) was greater than 100 µM, the GI50 (NCI-H460 lung) was 28.3 µM and the TGI (NCI-H460 lung) was greater than 100 µM. For the same compound, the GI50 (HT29 colon) was 82.1 µM, the TGI (HT29 colon) was greater than 100 µM and the GI50 (IGROV1 ovarian) was 10.4 µM. For the same compound, the TGI (IGROV1 ovarian) was 50 µM, the GI50 (HCT-15 colon) was 26.3 µM and the TGI (HCT-15 colon) was 72.4 µM. The GI50 (MOLT-4 leukemia) was greater than 100 µM, the TGI (MOLT-4 leukemia) was greater than 100 µM and the GI50 (A498 renal) was 27.4 µM. For the same compound, the TGI (A498 renal) was 66.5 µM, the GI50 (DU-145 prostate) was 30.4 µM and the TGI (DU-145 prostate) was greater than 100 µM. The GI50 (SF-295 CNS) was 19.5 µM and the TGI (SF-295 CNS) was greater than 100 µM.
`C=C1c2ccoc2C[C@H]2[C@H]1CC[C@@]1(O)[C@@](C)(C(=O)OC)CCC[C@]21C` was tested, and the GI50 (SK-MEL-2 melanoma) was 19 µM, the TGI (SK-MEL-2 melanoma) was 42.2 µM and the GI50 (SW-620 colon) was 29.8 µM. The TGI (SW-620 colon) was 85.5 µM, the GI50 (NCI-H460 lung) was 18 µM and the TGI (NCI-H460 lung) was 49.9 µM. The GI50 (HT29 colon) was 17.5 µM, the TGI (HT29 colon) was 81.6 µM and the GI50 (IGROV1 ovarian) was 11.2 µM. The TGI (IGROV1 ovarian) was 38.4 µM, the GI50 (HCT-15 colon) was 24.9 µM and the TGI (HCT-15 colon) was 64.9 µM. For the same compound, the GI50 (MOLT-4 leukemia) was 15.6 µM, the TGI (MOLT-4 leukemia) was 43.3 µM and the GI50 (A498 renal) was 21.9 µM. For the same compound, the TGI (A498 renal) was 40.8 µM, the GI50 (DU-145 prostate) was 38.4 µM and the TGI (DU-145 prostate) was greater than 100 µM. The GI50 (SF-295 CNS) was 27.9 µM and the TGI (SF-295 CNS) was 81.9 µM.
Work on `Nc1c(C(=O)c2cccc(C#CCO)c2)cnn1-c1ccc(F)cc1` yielded a GI50 (SK-MEL-2 melanoma) greater than 25 µM, a TGI (SK-MEL-2 melanoma) greater than 25 µM and a GI50 (SW-620 colon) greater than 25 µM. The TGI (SW-620 colon) was greater than 25 µM, the GI50 (NCI-H460 lung) was greater than 25 µM and the TGI (NCI-H460 lung) was greater than 25 µM. It also gave a GI50 (HT29 colon) greater than 25 µM, a TGI (HT29 colon) greater than 25 µM and a GI50 (IGROV1 ovarian) greater than 25 µM. The TGI (IGROV1 ovarian) was greater than 25 µM, the GI50 (HCT-15 colon) was greater than 25 µM and the TGI (HCT-15 colon) was greater than 25 µM. The GI50 (MOLT-4 leukemia) was greater than 25 µM, the TGI (MOLT-4 leukemia) was greater than 25 µM and the GI50 (A498 renal) was greater than 18.5 µM. It also gave a TGI (A498 renal) greater than 25 µM, a GI50 (DU-145 prostate) greater than 25 µM and a TGI (DU-145 prostate) greater than 25 µM. For the same compound, the GI50 (SF-295 CNS) was greater than 25 µM and the TGI (SF-295 CNS) was greater than 25 µM.
In the case of `COC(=O)c1cc2ccccc2c2c3c(ccc12)OCO3`, the GI50 (SK-MEL-2 melanoma) is reported as 49.9 µM, the TGI (SK-MEL-2 melanoma) is reported as 334 µM and the GI50 (SW-620 colon) is reported as 900 µM. The TGI (SW-620 colon) was greater than 1000 µM, the GI50 (NCI-H460 lung) was 290 µM and the TGI (NCI-H460 lung) was greater than 1000 µM. It also gave a GI50 (HT29 colon) of 33.7 µM, a TGI (HT29 colon) greater than 1000 µM and a GI50 (IGROV1 ovarian) of 90.7 µM. For the same compound, the TGI (IGROV1 ovarian) was greater than 1000 µM, the GI50 (HCT-15 colon) was 137 µM and the TGI (HCT-15 colon) was greater than 1000 µM. The GI50 (MOLT-4 leukemia) was 794 µM, the TGI (MOLT-4 leukemia) was greater than 1000 µM and the GI50 (A498 renal) was 15.5 µM. It also gave a TGI (A498 renal) of 129 µM, a GI50 (DU-145 prostate) of 109 µM and a TGI (DU-145 prostate) greater than 1000 µM. The GI50 (SF-295 CNS) was 99.8 µM and the TGI (SF-295 CNS) was 548 µM.
